Data on 22 molecules can be found in US20120283216A1, “FUNGICIDAL 2-(BICYCLIC ARYLOXY)CARBOXAMIDES” (priority 2009, published 2012).

What all share (assay type): in vivo
Assay [1] relates to Blumeria graminis f. sp. tritici. Put plainly: Test A: wheat powdery mildew, preventive spray on wheat seedlings, visual disease rating. The following applies: preventive spray at 40 ppm, rated 8 days after inoculation; for pest or weed control at 40 ppm: Blumeria graminis, 192 h, read-out: Test A disease control rating (100 = 100% disease control, 0 = no disease control relative to the controls). From the text: General protocol for preparing test suspensions for Tests A-C: the test compounds were first dissolved in acetone in an amount equal to 11% of the final volume and then suspended at the desired concentration (in ppm) in acetone and purified water (50/50 mix by volume) containing 250 ppm of the surfactant Trem® 014 (polyhydric alcohol esters). The resulting test suspensions were then used in Tests A-C. Spraying a 40 ppm test suspension to the point of run-off on the test plants was the equivalent of a rate of 800 g/ha. The test suspension was sprayed to the point of run-off on wheat seedlings. The following day the seedlings were inoculated with a spore dust of Blumeria graminis f. sp. tritici, (the causal agent of wheat powdery mildew) and incubated in a growth chamber at 20° C. for 8 days, after which time disease ratings were visually made. Results for Tests A-C are given in Table A. In the Table, a rating of 100 indicates 100% disease control and a rating of 0 indicates no disease control (relative to the controls). A dash (-) indicates no test results. All results are from applications of 40 ppm.

Assay [2] relates to Septoria tritici. The assay can be described thus: Test B: wheat leaf blotch, preventive spray on wheat seedlings, visual disease rating. The following applies: preventive spray at 40 ppm, rated after 48 h + 19 days; for pest or weed control at 40 ppm: Zymoseptoria tritici, 504 h, read-out: Test B disease control rating (100 = 100% disease control, 0 = no disease control relative to the controls). The text has this: General protocol for preparing test suspensions for Tests A-C: the test compounds were first dissolved in acetone in an amount equal to 11% of the final volume and then suspended at the desired concentration (in ppm) in acetone and purified water (50/50 mix by volume) containing 250 ppm of the surfactant Trem® 014 (polyhydric alcohol esters). The resulting test suspensions were then used in Tests A-C. Spraying a 40 ppm test suspension to the point of run-off on the test plants was the equivalent of a rate of 800 g/ha. The test suspension was sprayed to the point of run-off on wheat seedlings. The following day the seedlings were inoculated with a spore suspension of Septoria tritici (the causal agent of wheat leaf blotch) and incubated in a saturated atmosphere at 20° C. for 48 h, and then moved to a growth chamber at 20° C. for 19 days, after which time disease ratings were visually made. Results for Tests A-C are given in Table A. In the Table, a rating of 100 indicates 100% disease control and a rating of 0 indicates no disease control (relative to the controls). A dash (-) indicates no test results. All results are from applications of 40 ppm.

For assay [3], the system named is Botrytis cinerea. The assay can be described thus: Test C: tomato botrytis, preventive spray on tomato seedlings, visual disease rating. The following applies: preventive spray at 40 ppm, rated after 48 h + 3 days; for pest or weed control at 40 ppm: Botrytis cinerea, 120 h, read-out: Test C disease control rating (100 = 100% disease control, 0 = no disease control relative to the controls). The text has this: General protocol for preparing test suspensions for Tests A-C: the test compounds were first dissolved in acetone in an amount equal to 11% of the final volume and then suspended at the desired concentration (in ppm) in acetone and purified water (50/50 mix by volume) containing 250 ppm of the surfactant Trem® 014 (polyhydric alcohol esters). The resulting test suspensions were then used in Tests A-C. Spraying a 40 ppm test suspension to the point of run-off on the test plants was the equivalent of a rate of 800 g/ha.
The test suspension was sprayed to the point of run-off on tomato seedlings. The following day the seedlings were inoculated with a spore suspension of Botrytis cinerea (the causal agent of tomato botrytis) and incubated in saturated atmosphere at 20° C. for 48 h, and then moved to a growth chamber at 27° C. for 3 additional days, after which time disease ratings were visually made.
Results for Tests A-C are given in Table A. In the Table, a rating of 100 indicates 100% disease control and a rating of 0 indicates no disease control (relative to the controls). A dash (-) indicates no test results. All results are from applications of 40 ppm.

`CCC(Oc1cnc2ccc(Br)cc2c1)C(=O)NC(C)(C)COC` (stereo not drawn) [Compound 48]: in assay [1], the “Test A disease control rating (100 = 100% disease control, 0 = no disease control relative to the controls)” value amounted to 96%. Moreover, the “Test B disease control rating (100 = 100% disease control, 0 = no disease control relative to the controls)” value in assay [2] is 99%. Besides, the “Test C disease control rating (100 = 100% disease control, 0 = no disease control relative to the controls)” value in assay [3] was determined as 99%.
Consider `CCC(Oc1cnc2ccc(Cl)cc2c1)C(=O)NC(C)(C)COC` (stereo not drawn) [Compound 49], for which, in assay [1], the “Test A disease control rating (100 = 100% disease control, 0 = no disease control relative to the controls)” value was 96%. Besides, the “Test B disease control rating (100 = 100% disease control, 0 = no disease control relative to the controls)” value in assay [2] was determined as 99%. The “Test C disease control rating (100 = 100% disease control, 0 = no disease control relative to the controls)” value in assay [3] was determined as 98%.
For the molecule `CCOCC(C)(C)NC(=O)C(CC)Oc1cnc2ccc(Cl)cc2c1` (stereo not drawn) [Compound 50], the “Test A disease control rating (100 = 100% disease control, 0 = no disease control relative to the controls)” value in assay [1] was found to be 84%. For the same molecule, in assay [2], the “Test B disease control rating (100 = 100% disease control, 0 = no disease control relative to the controls)” value came out at 98%. Also, the “Test C disease control rating (100 = 100% disease control, 0 = no disease control relative to the controls)” value in assay [3] is recorded as 90%.
On to `CCC(Oc1cnc2ccc(I)cc2c1)C(=O)NC(C)(C)C` (stereo not drawn) [Compound 51, N-(1,1-dimethylethyl)-2-[(6-iodo-3-quinolinyl)oxy]butanamide], for which the pest or weed control at 40 ppm in assay [1] worked out at 93%; in assay [2], 100%; in assay [3] it was 99%.
Turning to `CCC(Oc1cnc2ccc(I)cc2c1)C(=O)NC(C)(C)CO` (stereo not drawn) [Compound 52], the “Test A disease control rating (100 = 100% disease control, 0 = no disease control relative to the controls)” value in assay [1] was 0%. In addition, in assay [2], the “Test B disease control rating (100 = 100% disease control, 0 = no disease control relative to the controls)” value is 45%. In addition, the “Test C disease control rating (100 = 100% disease control, 0 = no disease control relative to the controls)” value in assay [3] is reported as 82%.
Consider `CCC(Oc1cnc2ccc(I)cc2c1)C(=O)NC(C)(C)COC` (stereo not drawn) [Compound 53], for which the “Test A disease control rating (100 = 100% disease control, 0 = no disease control relative to the controls)” value in assay [1] was found to be 99%. For the same molecule, the “Test B disease control rating (100 = 100% disease control, 0 = no disease control relative to the controls)” value in assay [2] amounted to 100%. In assay [3], the “Test C disease control rating (100 = 100% disease control, 0 = no disease control relative to the controls)” value stood at 99%.
In the case of `CCC(Oc1cnc2ccc(F)cc2c1)C(=O)NC(C)(C)COC` (stereo not drawn) [Compound 54], the “Test A disease control rating (100 = 100% disease control, 0 = no disease control relative to the controls)” value in assay [1] is reported as 0%. In addition, the “Test B disease control rating (100 = 100% disease control, 0 = no disease control relative to the controls)” value in assay [2] stood at 71%. The “Test C disease control rating (100 = 100% disease control, 0 = no disease control relative to the controls)” value in assay [3] turned out to be 0%.
As for `CCOCC(C)(C)NC(=O)C(CC)Oc1cnc2ccc(I)cc2c1` (stereo not drawn) [Compound 55], the “Test A disease control rating (100 = 100% disease control, 0 = no disease control relative to the controls)” value in assay [1] was 96%. Besides, the “Test B disease control rating (100 = 100% disease control, 0 = no disease control relative to the controls)” value in assay [2] is recorded as 99%. Further, the “Test C disease control rating (100 = 100% disease control, 0 = no disease control relative to the controls)” value in assay [3] was found to be 86%.
The corresponding values for `CCC(Oc1cnc2c(Cl)cc(Cl)cc2c1)C(=O)NC(C)(C)COC` (stereo not drawn) [Compound 56] are 0%, 99% and 99%.
Turning to `CCC(Oc1cnc2c(Cl)cc(Cl)cc2c1)C(=O)NC(C)(C)C` (stereo not drawn) [Compound 57], the pest or weed control at 40 ppm in assay [1] is 0%; in assay [2] it was 99%; in assay [3] it was 99%.
`CCC(Oc1cnc2ccc(Br)cc2c1)C(=O)NC(C)(C)COCOC` (stereo not drawn) [Compound 58]: in assay [1], the “Test A disease control rating (100 = 100% disease control, 0 = no disease control relative to the controls)” value came out at 99%. In addition, the “Test B disease control rating (100 = 100% disease control, 0 = no disease control relative to the controls)” value in assay [2] was 100%. Besides, in assay [3], the “Test C disease control rating (100 = 100% disease control, 0 = no disease control relative to the controls)” value was found to be 99%.
As for `COCC(C)(C)NC(=O)C(C)Oc1cnc2ccc(I)cc2c1` (stereo not drawn) [Compound 59, 2-[(6-iodo-3-quinolinyl)oxy]-N-(2-methoxy-1,1-dimethylethyl)propanamide], the pest or weed control at 40 ppm worked out at 0% in assay [1], 95% in assay [2] and 99% in assay [3].
On to `COCC(C)(C)NC(=O)C(C)Oc1cnc2ccc(Br)cc2c1` (stereo not drawn) [Compound 60], for which, in assay [1], the “Test A disease control rating (100 = 100% disease control, 0 = no disease control relative to the controls)” value amounted to 0%. For the same molecule, the “Test B disease control rating (100 = 100% disease control, 0 = no disease control relative to the controls)” value in assay [2] is given as 74%. Moreover, the “Test C disease control rating (100 = 100% disease control, 0 = no disease control relative to the controls)” value in assay [3] is reported as 95%.
In the case of `C#CC(C)(C)NC(=O)C(OC)Oc1cnc2ccc(I)cc2c1` (stereo not drawn) [Compound 63, N-(1,1-dimethyl-2-propyn-1-yl)-2-[(6-iodo-3-quinolinyl)oxy]-2-methoxy-acetamide], the pest or weed control at 40 ppm in assay [1] came out at 93%; in assay [2], 99%; in assay [3] it was 99%.
Take `COC(Oc1cnc2ccc(I)cc2c1)C(=O)NC1(C)CC1` (stereo not drawn) [Compound 64]: in assay [1], the “Test A disease control rating (100 = 100% disease control, 0 = no disease control relative to the controls)” value was 84%. Further, in assay [2], the “Test B disease control rating (100 = 100% disease control, 0 = no disease control relative to the controls)” value stood at 99%. In addition, in assay [3], the “Test C disease control rating (100 = 100% disease control, 0 = no disease control relative to the controls)” value was found to be 100%.
The corresponding values for `COCC(C)(C)NC(=O)C(OC)Oc1cnc2ccc(I)cc2c1` (stereo not drawn) [Compound 65] are 81%, 99% and 100%.
As to `CCC(Oc1cc2cc(F)ccc2cn1)C(=O)NC(C)(C)C` (stereo not drawn) [Compound 66], the “Test A disease control rating (100 = 100% disease control, 0 = no disease control relative to the controls)” value in assay [1] came out at 79%. Also, the “Test B disease control rating (100 = 100% disease control, 0 = no disease control relative to the controls)” value in assay [2] is listed as 0%. Besides, in assay [3], the “Test C disease control rating (100 = 100% disease control, 0 = no disease control relative to the controls)” value is 88%.
In the same order, the values of `CCC(Oc1cc2cc(Br)ccc2cn1)C(=O)NC(C)(C)C` (stereo not drawn) [Compound 67] are 92%, 77% and 100%.
With `CCOc1ccc2ccc(OC(OC)C(=O)NC(C)(C)C#N)cc2c1` (stereo not drawn) [Compound 68], the “Test A disease control rating (100 = 100% disease control, 0 = no disease control relative to the controls)” value in assay [1] was 100%. Moreover, the “Test B disease control rating (100 = 100% disease control, 0 = no disease control relative to the controls)” value in assay [2] is 100%. Moreover, in assay [3], the “Test C disease control rating (100 = 100% disease control, 0 = no disease control relative to the controls)” value turned out to be 100%.
Consider `C#CC(C)(C)NC(=O)C(OC)Oc1ccc2ccc(OCC)cc2c1` (stereo not drawn) [Compound 69, N-(1,1-dimethyl-2-propyn-1-yl)-2-[(7-ethoxy-2-naphthalenyl)oxy]-2-methoxyacetamide], for which the pest or weed control at 40 ppm in assay [1], in assay [2] and in assay [3] was 100% in each case.
`CCOc1ccc2ccc(OC(OC)C(=O)NC(C)(C)COC)cc2c1` (stereo not drawn) [Compound 70]: the “Test A disease control rating (100 = 100% disease control, 0 = no disease control relative to the controls)” value in assay [1] was found to be 100%. Moreover, the “Test B disease control rating (100 = 100% disease control, 0 = no disease control relative to the controls)” value in assay [2] was found to be 100%. In addition, the “Test C disease control rating (100 = 100% disease control, 0 = no disease control relative to the controls)” value in assay [3] came to 98%.
In the case of `CCC(Oc1ccc2ccc(OCOC)cc2c1)C(=O)NC(C)(C)C` (stereo not drawn) [Compound 71], the “Test A disease control rating (100 = 100% disease control, 0 = no disease control relative to the controls)” value in assay [1] is reported as 81%. The “Test B disease control rating (100 = 100% disease control, 0 = no disease control relative to the controls)” value in assay [2] was determined as 99%. Also, the “Test C disease control rating (100 = 100% disease control, 0 = no disease control relative to the controls)” value in assay [3] came out at 99%.
